Experimental findings from paper PMC9973354 (mBio, 2022) are described below.

The target in one test is T1, FpvB R191A R648C (Pseudomonas aeruginosa, UniProt A0A0H2ZFZ5, R191A/R648C).
T1 sequence (A0A0H2ZFZ5 23-802 R191A/R648C): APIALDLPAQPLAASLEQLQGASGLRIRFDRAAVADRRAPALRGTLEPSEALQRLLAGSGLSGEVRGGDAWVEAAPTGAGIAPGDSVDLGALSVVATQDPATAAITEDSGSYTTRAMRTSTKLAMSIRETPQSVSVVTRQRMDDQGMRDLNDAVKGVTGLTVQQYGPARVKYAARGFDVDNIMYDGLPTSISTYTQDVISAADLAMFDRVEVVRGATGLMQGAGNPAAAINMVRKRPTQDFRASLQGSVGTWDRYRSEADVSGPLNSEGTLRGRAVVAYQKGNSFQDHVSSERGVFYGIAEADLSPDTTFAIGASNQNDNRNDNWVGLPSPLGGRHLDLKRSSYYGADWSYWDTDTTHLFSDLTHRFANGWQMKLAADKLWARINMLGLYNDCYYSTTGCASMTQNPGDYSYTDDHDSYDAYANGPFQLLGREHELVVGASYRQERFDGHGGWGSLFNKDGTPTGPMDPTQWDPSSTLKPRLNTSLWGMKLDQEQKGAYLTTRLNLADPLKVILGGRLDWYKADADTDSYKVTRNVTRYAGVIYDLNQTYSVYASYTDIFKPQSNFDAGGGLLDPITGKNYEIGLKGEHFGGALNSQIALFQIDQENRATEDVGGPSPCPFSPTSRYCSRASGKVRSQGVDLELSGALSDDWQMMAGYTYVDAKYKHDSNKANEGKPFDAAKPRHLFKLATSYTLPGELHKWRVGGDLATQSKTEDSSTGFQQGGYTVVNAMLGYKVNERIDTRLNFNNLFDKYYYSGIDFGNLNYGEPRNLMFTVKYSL
The experiment in a line: Whole-cell fluorescence quenching, FpvB R191A R648C. It is filed as binding. Conditions: FpvB R191A R648C. How it is done:
(§1) Quenching assays with the two xenosiderophores were repeated for the quadruple TBDT mutant expressing WT FpvB, FpvB R191A R648C, or W347V R648C.
(§2) Cells were cultured overnight in LB with carbenicillin (200 μg/mL) at 37°C with shaking at 200 rpm. Cells were subcultured (1:200 dilution) in 10:90 plus 2% arabinose for 4 h without carbenicillin at 37°C with shaking at 200 rpm. Cells were harvested by centrifugation for 5 min and 6,000 × g and resuspended in sterile 1× phosphate-buffered saline (PBS) (pH 7.4); 1× PBS was made from a 10× stock (80 g NaCl, 2 g KCl, 26.8 g Na2 HPO4-7H2O, 2.4 g KH2PO4 in 1 L of deionized H2O) with 10 μM Alexa Fluor 594 C5 maleimide for microscopy or fluorescein-5-maleimide for fluorescence quenching and recovery assays and incubated in the dark at room temperature for 30 min on a shaking incubator at 37°C (200 rpm). Excess dye was quenched with 1 mM dithiothreitol (DTT) (Sigma) to stop the reaction. Cells were washed 3× with PBS. For fluorescence recovery assays, cells were incubated with 1× PBS plus 0.4% glucose at 37°C with shaking at 200 rpm. Glucose was prepared as a 20% stock (wt/vol) in 1× PBS and filter sterilized. Cells were spun down and washed 3× with 1× PBS and resuspended in 1× PBS for quenching assays and 1× PBS plus 0.4% glucose for fluorescence recovery assays.
(§3) For fluorescence quenching and recovery assays, cells were diluted to an OD600 of 0.1 for both types of assays, and 148 μL was added into wells of a 96-well black plate (Corning). Fluorescence was recorded for 5 min at 1-min intervals at 37°C (BioTek Neo; excitation, 494 nm; emission, 520 nm). After 5 min, 2 μL of each serial dilution for ferrioxamine-Fe^3+, ferrichrome-Fe^3+, and pyoverdine-Fe^3+ or DMSO for vehicle controls was added to each well. Fluorescence was recorded immediately for quenching assays and for 1 h at 1-min intervals for fluorescence recovery assays. Background fluorescence was subtracted from all fluorescence readings and 1-F/F0 was used to calculate the degree of quenching, where F0 is the initial fluorescence. Kd was calculated using GraphPad Prism using a one-site specific binding model or a two-site model. For fluorescence recovery assays, background was subtracted from all fluorescence readings and F/F0 expressed as a percent of control was plotted versus time.

A further test deals with T2, FpvB W347V R648C (Pseudomonas aeruginosa, UniProt A0A0H2ZFZ5, R648C/W347V).
T2 sequence (A0A0H2ZFZ5 23-802 W347V/R648C): T1 sequence (A0A0H2ZFZ5 23-802 R191A/R648C)
As to the kind of experiment: Whole-cell fluorescence quenching, FpvB W347V R648C. Conditions: FpvB W347V R648C. It is filed as binding. How it is done: as §1, §2, §3

Another test has as its system PA14 ΔpvdA ΔpchA mutant. As to the kind of experiment: Growth curves with DSX and siderophores, ΔpvdA ΔpchA. It is filed as cell-based, Pseudomonas aeruginosa. Conditions: 64 μg/mL DSX + 10 μg/mL siderophore, 20 h. How it is done:
Supplementary file : FIG S1 (A) FpvB is expressed in WT PA14 and the ΔfpvA mutant grown in 10:90. PilF was used as a loading control for outer membrane proteins. (B) FpvA is expressed from WT PA14 grown in 10:90. […] PilF was used as a loading control for outer membrane proteins. (C) Growth curves of PA14 and mutants with DSX and different siderophores in 10:90. PA14, ΔfpvA, ΔfpvB, ΔfpvA ΔfpvB, and ΔpvdA ΔpchA strain growth. Blue indicates control, purple indicates treatment with 64 μg/mL DSX, yellow indicates treatment with 10 μg/mL pyoverdine (PA14), and red indicates treatment with 64 μg/mL DSX and 10 μg/mL pyoverdine (PA14). (D) ΔfpvA, ΔfpvA ΔfpvB, and ΔpvdA ΔpchA strain growth. Blue indicates control, purple indicates treatment with 64 μg/mL DSX, grey indicates treatment with 10 μg/mL ferrichrome, and red indicates treatment with 64 μg/mL DSX and 10 μg/mL ferrichrome. (E) ΔfpvA, ΔfpvA ΔfpvB, and ΔpvdA ΔpchA strain growth. […] Download FIG S1, EPS file, 8.5 MB.
As a control, a ΔpvdA ΔpchA mutant unable to make pyoverdine and pyochelin was also tested. Growth of this mutant was inhibited by DSX.

Another test concerns the target T3, FpvB R648C (Pseudomonas aeruginosa, UniProt A0A0H2ZFZ5, R648C).
T3 sequence (A0A0H2ZFZ5 23-802 R648C): T1 sequence (A0A0H2ZFZ5 23-802 R191A/R648C)
As to the kind of experiment: Fluorescence recovery assay (siderophore uptake by FpvB). Type of test: cell-based. How it is done: Cells were equilibrated for 5 min prior to introduction of the siderophores. Fluorescence was recorded every min for 1 h. Carbonyl cyanide m-chlorophenylhydrazone (CCCP) was used as a control to inhibit fluorescence recovery through dissipation of the proton motive force (PMF) ([2], [3]), which is required for uptake.
as §2, with “Glucose was prepared as a 20% stock (wt/vol) in 1× PBS and filter sterilized.” left out
as §3, with “After 5 min, 2 μL of each serial dilution for ferrioxamine-Fe^3+, ferrichrome-Fe^3+, and pyoverdine-Fe^3+ or DMSO for vehicle controls was added to each well.” left out, “For fluorescence recovery assays, background was subtracted from all fluorescence readings and F/F0 expressed as a percent of control was plotted versus time.” left out

The mark [1] stands for this setting: one-site model, read-out: Kd (converted).

“And” between values parts separate entries of the source, which are not always exact repeats. Equal entries are not always repeated. Where two headings read alike, the source gives them in different places. Starred links: 1 amine or outer side, 2 acyl side, 3 side chain; linkers in the order of their positions; H or OH if unused. Positions of bridges follow the written chain, without caps; N, C: chain ends. Non-standard residues stand in square brackets, D forms with d. Residues, ends and D or L forms follow the SMILES beside them. ξ: configuration not given here. X1 = O=C([C@@H]1CCN=C2C(N[*:1])=Cc3cc(O)c(O)cc3N21)[*:2]; ξOrn(N(OH)CHO) = NC(CCCN(O)C=O)C(=O)O; Suc = O=C(CCC(=O)[*:2])[*:1]; ξK = NCCCCC(N)C(=O)O; ξS = NC(CO)C(=O)O

Consider `CC(=O)N(O)CCCCCNC(=O)CCC(=O)N(O)CCCCCNC(=O)CCC(=O)N(O)CCCCCN` [ferrioxamine B], for which the Kd at FpvB R191A R648C (setting [1]) is 535 µM and 480 µM; on FpvB W347V R648C (setting [1]), 874 µM. The “growth with siderophore in the presence of DSX” value in the test with PA14 ΔpvdA ΔpchA mutant is on record as “rescued growth”. Moreover, the fluorescence recovery on FpvB R648C is on record as ~ 50 % of the control.

Take `NCCCCC(NC(=O)C(CO)NC(=O)[C@@H]1CCN=C2C(NC(=O)CCC(=O)O)=Cc3cc(O)c(O)cc3N21)C(=O)NCC(=O)NC(CCCN(O)C=O)C(=O)NC1CCCCNC(=O)C(CO)NC(=O)C(CCCN(O)C=O)NC1=O` (some centres unmarked) [pyoverdine] (Suc-[X1][ξS][ξK]G[ξOrn(N(OH)CHO)][ξK][ξOrn(N(OH)CHO)][ξS]; lactam 6-C): the “affinity (Kd not reached, no saturation at highest concentration)” value at FpvB R191A R648C and on FpvB W347V R648C was “reduced affinity” each time. Besides, in the test with PA14 ΔpvdA ΔpchA mutant, the “growth with siderophore in the presence of DSX” value is “restored growth”. Besides, on FpvB R648C (siderophore at 1/2 Kd (1/2 Kd2 for ferrioxamine B), recorded for 1 h), the fluorescence recovery entry is listed as “no recovery”.

By Kd is commonly meant the free concentration of one partner at which half of the binding sites on the other are occupied at equilibrium, for simple one-to-one binding.
